Results reported in patent US20220089575A1, “FARNESOID X RECEPTOR AGONISTS AND USES THEREOF” (Metacrine, Inc., priority 2017, published 2022).
pEC50: −log10 of the molar value.

target: T1, hFXR (Homo sapiens, UniProt Q96RI1); test: In Vitro FXR Assay (TK): TK-ECRE-luc reporter in transfected CV-1 cells; format: cell-based; details: 18 hrs, luminescence, maximum efficacy of <25% of the Fexarmine control classified as '+'
T1 construct: expressed in transfected cells; host or cells: CV-1 cells
T1 sequence (Q96RI1 1-486): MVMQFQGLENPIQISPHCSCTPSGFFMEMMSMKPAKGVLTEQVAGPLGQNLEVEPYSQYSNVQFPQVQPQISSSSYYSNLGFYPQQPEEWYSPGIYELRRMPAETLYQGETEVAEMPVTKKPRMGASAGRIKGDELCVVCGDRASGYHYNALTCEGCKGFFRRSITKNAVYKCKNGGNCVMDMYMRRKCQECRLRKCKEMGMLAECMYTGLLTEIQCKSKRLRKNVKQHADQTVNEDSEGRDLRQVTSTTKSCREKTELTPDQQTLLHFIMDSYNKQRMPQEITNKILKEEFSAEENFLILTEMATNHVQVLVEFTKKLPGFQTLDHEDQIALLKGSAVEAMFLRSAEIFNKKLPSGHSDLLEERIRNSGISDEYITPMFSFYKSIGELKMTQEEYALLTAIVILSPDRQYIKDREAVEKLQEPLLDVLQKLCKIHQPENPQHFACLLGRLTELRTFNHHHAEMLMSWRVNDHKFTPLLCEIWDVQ
T1 sequence (P19793 1-462 partner): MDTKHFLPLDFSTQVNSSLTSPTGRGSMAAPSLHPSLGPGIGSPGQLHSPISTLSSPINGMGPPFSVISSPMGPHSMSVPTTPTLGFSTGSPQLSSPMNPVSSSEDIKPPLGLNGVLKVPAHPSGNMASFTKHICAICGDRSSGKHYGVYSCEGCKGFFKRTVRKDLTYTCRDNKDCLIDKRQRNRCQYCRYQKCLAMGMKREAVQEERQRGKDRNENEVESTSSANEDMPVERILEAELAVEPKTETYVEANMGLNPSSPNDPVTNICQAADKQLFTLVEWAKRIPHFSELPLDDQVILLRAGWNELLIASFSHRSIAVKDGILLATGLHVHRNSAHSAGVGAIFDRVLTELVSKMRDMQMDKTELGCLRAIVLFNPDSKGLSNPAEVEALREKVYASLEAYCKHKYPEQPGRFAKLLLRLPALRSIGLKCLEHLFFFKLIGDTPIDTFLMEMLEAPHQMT
Summary of the method: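 Reporter transactivation by hFXR was measured in CV-1 cells carrying hRXR and a TK-ECRE-luc construct, with compound treatment for 18 h before lysis and luminescence detection.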

Structure (SMILES) | pEC50
COc1ncc([C@H]2CC[C@H](CN(c3cc(-c4coc(C5CC5)n4)ccn3)C(=O)[C@H]3CC[C@H](OC(=O)N4CC(O)C4)CC3)CC2)cc1C [Compound 7.94, trans-4-((4-(2-Cyclopropyloxazol-4-yl)pyridine-2-yl)((trans-4-(6-methoxy-5-methylpyridin-3-yl)cyclohexyl)methyl)carbamoyl)cyclohexyl 3-hydroxyazetidine-1-carboxylate] | ≥ 6.60
COc1ccc([C@H]2CC[C@H](CN(c3cc(-c4coc(C5CC5)n4)ccn3)C(=O)[C@H]3CC[C@@H](OC(=O)N4CC(O)C4)CC3)CC2)nc1C [Compound 7.96, 4-(4-(2-Cyclopropyloxazol-4-y)pyridine-2-yl)((4-(5-methoxy-6-methylpyridin-2-yl)cyclohexyl)methyl)carbamoyl) cyclohexyl-cis-3-hydroxyazetidine-1-carboxylate] | 6.00 to 6.60
COc1ccc([C@H]2CC[C@H](CN(c3cc(-c4coc(C(C)C)n4)ccn3)C(=O)[C@H]3CC[C@H](OC(=O)N4CC(CO)C4)CC3)CC2)nc1C [Compound 7.97, trans-4-((4-(2-Isopropyloxazol-4-yl)pyridine-2-yl)((trans-4-(5-methoxy-6-methylpyridin-2-yl)cyclohexyl)methyl)carbamoyl)cyclohexyl 3-(hydroxymethyl)azetidine-1-carboxylate] | ≥ 6.60
C#CC1CN(C(=O)O[C@H]2CC[C@H](C(=O)N(C[C@H]3CC[C@H](c4ccc(OC)c(C)n4)CC3)c3cc(-c4coc(C5CC5)n4)ccn3)CC2)C1 [Compound 7.98, trans-4-((4-(2-Cyclopropyloxazol-4-yl)pyridine-2-yl)((trans-4-(5-methoxy-6-methylpyridin-2-yl)cyclohexyl)methyl)carbamoyl)cyclohexyl 3-ethynylazetidine-1-carboxylate] | ≥ 6.60
COc1ccc([C@H]2CC[C@H](CN(c3cc(-c4coc(C5CC5)n4)ccn3)C(=O)[C@H]3CC[C@H](OC(=O)N4CC(C(C)(C)O)C4)CC3)CC2)nc1C [Compound 7.99, trans-4-((4-(2-Cyclopropyloxazol-4-yl)pyridine-2-yl)((trans-4-(5-methoxy-6-methylpyridin-2-yl)cyclohexyl)methyl)carbamoyl)cyclohexyl 3-(2-hydroxypropan-2-yl)azetidine-1-carboxylate] | ≥ 6.60
COc1ccc([C@H]2CC[C@H](CN(c3cc(-c4coc(C5CC5)n4)ccn3)C(=O)[C@H]3CC[C@H](OC(=O)N4CC(C(C)(C)C)C4)CC3)CC2)nc1C [Compound 7.103, trans-4-((4-(2-Cyclopropyloxazol-4-yl)pyridine-2-yl)((trans-4-(5-methoxy-6-methylpyridin-2-yl)cyclohexyl)methyl)carbamoyl)cyclohexyl 3-(tert-butyl)azetidine-1-carboxylate] | ≥ 6.60
CCCOC1CN(C(=O)O[C@H]2CC[C@H](C(=O)N(C[C@H]3CC[C@H](c4ccc(OC)c(C)n4)CC3)c3cc(-c4coc(C5CC5)n4)ccn3)CC2)C1 [Compound 7.104, trans-4-((4-(2-Cyclopropyloxazol-4-yl)pyridine-2-yl)((trans-4-(5-methoxy-6-methylpyridin-2-yl)cyclohexyl)methyl)carbamoyl)cyclohexyl 3-propoxyazetidine-1-carboxylate] | ≥ 6.60
COc1ccc([C@H]2CC[C@H](CN(c3cc(-c4coc(C5CC5)n4)ccn3)C(=O)[C@H]3CC[C@H](OC(=O)N4CCOC(C)C4)CC3)CC2)nc1C (stereo partly drawn) [Compound 7.107, trans-4-((4-(2-Cyclopropyloxazol-4-yl)pyridin-2-yl)((trans-4-(5-methoxy-6-methylpyridin-2-yl)cyclohexyl)methyl)carbamoyl)cyclohexyl 2-methylmorpholine-4-carboxylate] | ≥ 6.60
COc1ccc([C@H]2CC[C@H](CN(c3cc(-c4coc(C5CC5)n4)ccn3)C(=O)[C@H]3CC[C@H](OC(=O)N4CC(N5CC(O)C5)C4)CC3)CC2)nc1C [Compound 7.108, trans-4-((4-(2-Cyclopropyloxazol-4-yl)pyridin-2-yl)((trans-4-(5-methoxy-6-methylpyridin-2-yl)cyclohexyl)methyl)carbamoyl)cyclohexyl 3-hydroxy-[1,3′-biazetidine]-1′-carboxylate] | ≥ 6.60
COc1ccc([C@H]2CC[C@H](CN(c3cccc(-c4cnn(C5CC5)c4)c3)C(=O)[C@H]3CC[C@H](OC(=O)N4CC(C[S+](C)[O-])C4)CC3)CC2)cc1C (stereo partly drawn) [Compound 8, trans-4-((3-(1-Cyclopropyl-1H-pyrazol-4-yl)phenyl)((trans-4-(4-methoxy-3-methylphenyl)cyclohexyl)methyl)carbamoyl)cyclohexyl 3-((methylsulfinyl)methyl)azetidine-1-carboxylate] | ≥ 6.60
COc1ccc([C@H]2CC[C@H](CN(c3cccc(-c4cnn(C5CC5)c4)c3)C(=O)[C@H]3CC[C@H](OC(=O)N4CC([S+](C)[O-])C4)CC3)CC2)cc1C (stereo partly drawn) [Compound 8.01, trans-4-((3-(1-Cyclopropyl-1H-pyrazol-4-yl)phenyl)((trans-4-(4-methoxy-3-methylphenyl)cyclohexyl)methyl)carbamoyl)cyclohexyl 3-(methylsulfinyl)azetidine-1-carboxylate] | ≥ 6.60

More lines, now with the values ahead:

pEC50 | Structure (SMILES)
≥ 6.60 | COCCOC1CN(C(=O)O[C@H]2CC[C@H](C(=O)N(C[C@H]3CC[C@H](c4ccc(OC)c(C)n4)CC3)c3cc(-c4coc(C5CC5)n4)ccn3)CC2)C1 [Compound 7.95, trans-4-((4-(2-Cyclopropyloxazol-4-yl)pyridine-2-yl)((trans-4-(5-methoxy-6-methylpyridin-2-yl)cyclohexyl)methyl)carbamoyl)cyclohexyl 3-(2-methoxyethoxy)azetidine-1-carboxylate]
≥ 6.60 | CCC1CN(C(=O)O[C@H]2CC[C@H](C(=O)N(C[C@H]3CC[C@H](c4ccc(OC)c(C)n4)CC3)c3cc(-c4coc(C(C)C)n4)ccn3)CC2)C1 [Compound 7.100, trans-4-((4-(2-Isopropyloxazol-4-yl)pyridine-2-yl)((trans-4-(5-methoxy-6-methylpyridin-2-yl)cyclohexyl)methyl)carbamoyl)cyclohexyl 3-ethylazetidine-1-carboxylate]
≥ 6.60 | COc1ccc([C@H]2CC[C@H](CN(c3cc(-c4coc(C5CC5)n4)ccn3)C(=O)[C@H]3CC[C@H](OC(=O)N4CC(CS(C)(=O)=O)C4)CC3)CC2)nc1C [Compound 7.101, trans-4-((4-(2-Cyclopropyloxazol-4-yl)pyridine-2-yl)((trans-4-(5-methoxy-6-methylpyridin-2-yl)cyclohexyl)methyl)carbamoyl)cyclohexyl 3-((methylsulfonyl)methyl)azetidine-1-carboxylate]
≥ 6.60 | COc1ccc([C@H]2CC[C@H](CN(c3cc(-c4coc(C5CC5)n4)ccn3)C(=O)[C@H]3CC[C@H](OC(=O)N4CC(C(C)C)C4)CC3)CC2)nc1C [Compound 7.102, trans-4-((4-(2-Cyclopropyloxazol-4-yl)pyridine-2-yl)((trans-4-(5-methoxy-6-methylpyridin-2-yl)cyclohexyl)methyl)carbamoyl)cyclohexyl 3-isopropylazetidine-1-carboxylate]
≥ 6.60 | CCCC1CN(C(=O)O[C@H]2CC[C@H](C(=O)N(C[C@H]3CC[C@H](c4ccc(OC)c(C)n4)CC3)c3cc(-c4coc(C5CC5)n4)ccn3)CC2)C1 [Compound 7.105, trans-4-((4-(2-Cyclopropyloxazol-4-yl)pyridin-2-yl)((trans-4-(5-methoxy-6-methylpyridin-2-yl)cyclohexyl)methyl)carbamoyl)cyclohexyl 3-propylazetidine-1-carboxylate]
≥ 6.60 | COc1ccc([C@H]2CC[C@H](CN(c3cc(-c4coc(C5CC5)n4)ccn3)C(=O)[C@H]3CC[C@H](OC(=O)N4CC(CN(C)C)C4)CC3)CC2)nc1C [Compound 7.106, trans-4-((4-(2-Cyclopropyloxazol-4-yl)pyridin-2-yl)((trans-4-(5-methoxy-6-methylpyridin-2-yl)cyclohexyl)methyl)carbamoyl)cyclohexyl 3-((dimethylamino)methyl)azetidine-1-carboxylate]
≥ 6.60 | CCc1nc(-c2ccnc(N(C[C@H]3CC[C@H](c4ccc(OC)c(C)n4)CC3)C(=O)[C@H]3CC[C@H](OC(=O)N4CC(O)C4)CC3)c2)co1 [Compound 7.109, trans-4-((4-(2-Ethyloxazol-4-yl)pyridin-2-yl)((trans-4-(5-methoxy-6-methylpyridin-2-yl)cyclohexyl)methyl)carbamoyl)cyclohexyl 3-hydroxyazetidine-1-carboxylate]
